In US20230085307A1, “PYRIDAZINONE COMPOUND AND HERBICIDE” (NISSAN CHEMICAL CORPORATION, priority 2019, published 2023):

Key:
southern crabgrass [1] = assay: Test Example 4: herbicidal effect by soil treatment (Table 19, symbol F); type: in vivo, southern crabgrass (Digitaria ciliaris)
Method in brief: (§1)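 Three weeks of greenhouse growth at 25° C. to 30° C. followed a uniform surface spray of water-diluted emulsion at a predetermined herbicide amount. Seeds had been sown beforehand under about 1.5 cm of sterilized diluvial soil. Grading followed criteria set out in an earlier test.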

redroot pigweed [2] = assay: Test Example 4: herbicidal effect by soil treatment (Table 19, symbol N); type: in vivo, redroot pigweed (Amaranthus retroflexus)
Method in brief: as §1

green foxtail [3] = assay: Test Example 4: herbicidal effect by soil treatment (Table 19, symbol G); type: in vivo, green foxtail (Setaria viridis)
Method in brief: as §1

blackgrass [4] = assay: Test Example 4: herbicidal effect by soil treatment (Table 19, symbol J); type: in vivo, blackgrass (Alopecurus myosuroides)
Method in brief: as §1

windgrass [5] = assay: Test Example 4: herbicidal effect by soil treatment (Table 19, symbol L); type: in vivo, windgrass (Apera spica-venti)
Method in brief: as §1

barnyard grass [6] = assay: Test Example 4: herbicidal effect by soil treatment (Table 19, symbol H); type: in vivo, barnyard grass (Echinochloa crus-galli)
Method in brief: as §1

Chinese sprangletop = assay: Test Example 3: herbicidal effect by foliage application, Wagner pot (Table 18, symbol D); type: in vivo, chinese sprangletop (Leptochloa chinensis)
Method in brief: (§2)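 Plants were sown in alluvial soil held under 0.1–0.5 cm standing water and grown 14 days in a greenhouse at 25–30 °C. An emulsifiable formulation, water-diluted to the set dose, was then sprayed onto the foliage, and effects were scored three weeks later using previously defined criteria.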

green foxtail [7] = assay: Test Example 5: herbicidal effect by foliage application, plastic box (Table 20, symbol G); type: in vivo, green foxtail (Setaria viridis); conditions: foliage application, three weeks after application
Method in brief: (§3)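 Plants sown in sterilized diluvial soil and grown 14 days in a greenhouse at 25° C to 30° C, then sprayed on the foliage with the compound's emulsion diluted in water to a predetermined herbicide amount. Injury to weeds and crops scored three weeks after application on a visual rating scale.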

barnyard grass [8] = assay: Test Example 5: herbicidal effect by foliage application, plastic box (Table 20, symbol H); type: in vivo, barnyard grass (Echinochloa crus-galli); conditions: foliage application, three weeks after application
Method in brief: as §3

lambsquarters [9] = assay: Test Example 4: herbicidal effect by soil treatment (Table 19, symbol O); type: in vivo, lambsquarters (Chenopodium album)
Method in brief: as §1

chickweed [10] = assay: Test Example 5: herbicidal effect by foliage application, plastic box (Table 20, symbol P); type: in vivo, common chickweed (Stellaria media); conditions: foliage application, three weeks after application
Method in brief: as §3

windgrass [11] = assay: Test Example 5: herbicidal effect by foliage application, plastic box (Table 20, symbol L); type: in vivo, windgrass (Apera spica-venti); conditions: foliage application, three weeks after application
Method in brief: as §3

persian speedwell [12] = assay: Test Example 4: herbicidal effect by soil treatment (Table 19, symbol R); type: in vivo, Persian speedwell (Veronica persica)
Method in brief: as §1

rice flat sedge = assay: Test Example 3: herbicidal effect by foliage application, Wagner pot (Table 18, symbol E); type: in vivo, rice flat sedge (Cyperus iria)
Method in brief: as §2

barnyard grass [13] = assay: Test Example 3: herbicidal effect by foliage application, Wagner pot (Table 18, symbol H); type: in vivo, barnyard grass (Echinochloa crus-galli)
Method in brief: as §2

southern crabgrass [14] = assay: Test Example 5: herbicidal effect by foliage application, plastic box (Table 20, symbol F); type: in vivo, southern crabgrass (Digitaria ciliaris); conditions: foliage application, three weeks after application
Method in brief: as §3

persian speedwell [15] = assay: Test Example 5: herbicidal effect by foliage application, plastic box (Table 20, symbol R); type: in vivo, Persian speedwell (Veronica persica); conditions: foliage application, three weeks after application
Method in brief: as §3

velvetleaf [16] = assay: Test Example 5: herbicidal effect by foliage application, plastic box (Table 20, symbol M); type: in vivo, velvetleaf (Abutilon theophrasti); conditions: foliage application, three weeks after application
Method in brief: as §3

chickweed [17] = assay: Test Example 4: herbicidal effect by soil treatment (Table 19, symbol P); type: in vivo, common chickweed (Stellaria media)
Method in brief: as §1

Italian ryegrass [18] = assay: Test Example 5: herbicidal effect by foliage application, plastic box (Table 20, symbol K); type: in vivo, Italian ryegrass (Lolium multiflorum); conditions: foliage application, three weeks after application
Method in brief: as §3

Italian ryegrass [19] = assay: Test Example 4: herbicidal effect by soil treatment (Table 19, symbol K); type: in vivo, Italian ryegrass (Lolium multiflorum)
Method in brief: as §1

wild oat [20] = assay: Test Example 5: herbicidal effect by foliage application, plastic box (Table 20, symbol I); type: in vivo, wild oat (Avena fatua); conditions: foliage application, three weeks after application
Method in brief: as §3

redroot pigweed [21] = assay: Test Example 5: herbicidal effect by foliage application, plastic box (Table 20, symbol N); type: in vivo, redroot pigweed (Amaranthus retroflexus); conditions: foliage application, three weeks after application
Method in brief: as §3

velvetleaf [22] = assay: Test Example 4: herbicidal effect by soil treatment (Table 19, symbol M); type: in vivo, velvetleaf (Abutilon theophrasti)
Method in brief: as §1

lambsquarters [23] = assay: Test Example 5: herbicidal effect by foliage application, plastic box (Table 20, symbol O); type: in vivo, lambsquarters (Chenopodium album); conditions: foliage application, three weeks after application
Method in brief: as §3

wild oat [24] = assay: Test Example 4: herbicidal effect by soil treatment (Table 19, symbol I); type: in vivo, wild oat (Avena fatua)
Method in brief: as §1

blackgrass [25] = assay: Test Example 5: herbicidal effect by foliage application, plastic box (Table 20, symbol J); type: in vivo, blackgrass (Alopecurus myosuroides); conditions: foliage application, three weeks after application
Method in brief: as §3

[26] = amount of applied herbicide 80 g/ha
[27] = amount of applied herbicide 320 g/ha

CCc1nn(C)c(=O)c(-c2c(-c3ccc(C(F)(F)F)cc3)sc3ccc(F)cc23)c1O [2-410]
herbicidal effect, F: southern crabgrass (southern crabgrass [1]; [26]): 0 (Herbicidal rate of 5% or less (almost no effect)) | herbicidal effect, N: redroot pigweed (redroot pigweed [2]; [26]): 3 (Herbicidal rate of 40% or more and less than 70%) | herbicidal effect, G: green foxtail (green foxtail [3]; [26]): 1 (Herbicidal rate of 5% or more and less than 20%) | herbicidal effect, J: blackgrass (blackgrass [4]; [26]): 0 (Herbicidal rate of 5% or less (almost no effect)) | herbicidal effect, L: windgrass (windgrass [5]; [26]): 0 (Herbicidal rate of 5% or less (almost no effect)) | herbicidal effect, H: barnyard grass (barnyard grass [6]; [26]): 0 (Herbicidal rate of 5% or less (almost no effect)) | herbicidal effect on D: Chinese sprangletop (Chinese sprangletop; [26]): 0 (Herbicidal rate of 5% or less (almost no effect)) | G: green foxtail, herbicidal effect grade (green foxtail [7]; 80 g/ha): 2 (Herbicidal rate of 20% or more and less than 40%) | H: barnyard grass, herbicidal effect grade (barnyard grass [8]; 80 g/ha): 3 (Herbicidal rate of 40% or more and less than 70%) | herbicidal effect, O: lambsquarters (lambsquarters [9]; [26]): 1 (Herbicidal rate of 5% or more and less than 20%) | P: chickweed, herbicidal effect grade (chickweed [10]; 80 g/ha): 4 (Herbicidal rate of 70% or more and less than 90%) | L: windgrass, herbicidal effect grade (windgrass [11]; 80 g/ha): 0 (Herbicidal rate of 5% or less (almost no effect)) | herbicidal effect, R: persian speedwell (persian speedwell [12]; [26]): 0 (Herbicidal rate of 5% or less (almost no effect)) | herbicidal effect on E: rice flat sedge (rice flat sedge; [26]): 1 (Herbicidal rate of 5% or more and less than 20%) | herbicidal effect on H: barnyard grass (barnyard grass [13]; [26]): 4 (Herbicidal rate of 70% or more and less than 90%) | F: southern crabgrass, herbicidal effect grade (southern crabgrass [14]; 80 g/ha): 0 (Herbicidal rate of 5% or less (almost no effect)) | R: persian speedwell, herbicidal effect grade (persian speedwell [15]; 80 g/ha): 4 (Herbicidal rate of 70% or more and less than 90%) | M: velvetleaf, herbicidal effect grade (velvetleaf [16]; 80 g/ha): 1 (Herbicidal rate of 5% or more and less than 20%) | herbicidal effect, P: chickweed (chickweed [17]; [26]): 0 (Herbicidal rate of 5% or less (almost no effect)) | K: Italian ryegrass, herbicidal effect grade (Italian ryegrass [18]; 80 g/ha): 0 (Herbicidal rate of 5% or less (almost no effect)) | herbicidal effect, K: Italian ryegrass (Italian ryegrass [19]; [26]): 0 (Herbicidal rate of 5% or less (almost no effect)) | I: wild oat, herbicidal effect grade (wild oat [20]; 80 g/ha): 0 (Herbicidal rate of 5% or less (almost no effect)) | N: redroot pigweed, herbicidal effect grade (redroot pigweed [21]; 80 g/ha): 3 (Herbicidal rate of 40% or more and less than 70%) | herbicidal effect, M: velvetleaf (velvetleaf [22]; [26]): 0 (Herbicidal rate of 5% or less (almost no effect)) | O: lambsquarters, herbicidal effect grade (lambsquarters [23]; 80 g/ha): 3 (Herbicidal rate of 40% or more and less than 70%) | herbicidal effect, I: wild oat (wild oat [24]; [26]): 0 (Herbicidal rate of 5% or less (almost no effect)) | J: blackgrass, herbicidal effect grade (blackgrass [25]; 80 g/ha): 0 (Herbicidal rate of 5% or less (almost no effect))

CON=C(C)c1ccc(-c2sc3cc(F)ccc3c2-c2c(O)c(C)nn(C)c2=O)cc1 [3-017]
herbicidal effect, F: southern crabgrass (southern crabgrass [1]; [27]): 0 (Herbicidal rate of 5% or less (almost no effect)) | herbicidal effect, N: redroot pigweed (redroot pigweed [2]; [27]): 5 (Herbicidal rate of 90% or more (almost completely withered)) | herbicidal effect, G: green foxtail (green foxtail [3]; [27]): 0 (Herbicidal rate of 5% or less (almost no effect)) | herbicidal effect, J: blackgrass (blackgrass [4]; [27]): 0 (Herbicidal rate of 5% or less (almost no effect)) | herbicidal effect, L: windgrass (windgrass [5]; [27]): 0 (Herbicidal rate of 5% or less (almost no effect)) | herbicidal effect, H: barnyard grass (barnyard grass [6]; [27]): 0 (Herbicidal rate of 5% or less (almost no effect)) | herbicidal effect on D: Chinese sprangletop (Chinese sprangletop; [27]): 0 (Herbicidal rate of 5% or less (almost no effect)) | G: green foxtail, herbicidal effect grade (green foxtail [7]; 320 g/ha): 5 (Herbicidal rate of 90% or more (almost completely withered)) | H: barnyard grass, herbicidal effect grade (barnyard grass [8]; 320 g/ha): 2 (Herbicidal rate of 20% or more and less than 40%) | herbicidal effect, O: lambsquarters (lambsquarters [9]; [27]): 4 (Herbicidal rate of 70% or more and less than 90%) | P: chickweed, herbicidal effect grade (chickweed [10]; 320 g/ha): 5 (Herbicidal rate of 90% or more (almost completely withered)) | L: windgrass, herbicidal effect grade (windgrass [11]; 320 g/ha): 2 (Herbicidal rate of 20% or more and less than 40%) | herbicidal effect, R: persian speedwell (persian speedwell [12]; [27]): 3 (Herbicidal rate of 40% or more and less than 70%) | herbicidal effect on E: rice flat sedge (rice flat sedge; [27]): 0 (Herbicidal rate of 5% or less (almost no effect)) | herbicidal effect on H: barnyard grass (barnyard grass [13]; [27]): 3 (Herbicidal rate of 40% or more and less than 70%) | F: southern crabgrass, herbicidal effect grade (southern crabgrass [14]; 320 g/ha): 3 (Herbicidal rate of 40% or more and less than 70%) | R: persian speedwell, herbicidal effect grade (persian speedwell [15]; 320 g/ha): 5 (Herbicidal rate of 90% or more (almost completely withered)) | M: velvetleaf, herbicidal effect grade (velvetleaf [16]; 320 g/ha): 3 (Herbicidal rate of 40% or more and less than 70%) | herbicidal effect, P: chickweed (chickweed [17]; [27]): 1 (Herbicidal rate of 5% or more and less than 20%) | K: Italian ryegrass, herbicidal effect grade (Italian ryegrass [18]; 320 g/ha): 4 (Herbicidal rate of 70% or more and less than 90%) | herbicidal effect, K: Italian ryegrass (Italian ryegrass [19]; [27]): 3 (Herbicidal rate of 40% or more and less than 70%) | I: wild oat, herbicidal effect grade (wild oat [20]; 320 g/ha): 1 (Herbicidal rate of 5% or more and less than 20%) | N: redroot pigweed, herbicidal effect grade (redroot pigweed [21]; 320 g/ha): 5 (Herbicidal rate of 90% or more (almost completely withered)) | herbicidal effect, M: velvetleaf (velvetleaf [22]; [27]): 0 (Herbicidal rate of 5% or less (almost no effect)) | O: lambsquarters, herbicidal effect grade (lambsquarters [23]; 320 g/ha): 5 (Herbicidal rate of 90% or more (almost completely withered)) | herbicidal effect, I: wild oat (wild oat [24]; [27]): 0 (Herbicidal rate of 5% or less (almost no effect)) | J: blackgrass, herbicidal effect grade (blackgrass [25]; 320 g/ha): 3 (Herbicidal rate of 40% or more and less than 70%)
